Laboratory results reported in PMC12040169 (PLOS Biology, 2025).

Assay: in vitro
Details: human, hela cells, % viability

SMILES | viability at 28.5 h, 10 µM [%] | viability at 28.5 h, 10 µM (bulk resorufin, single well) [%]
CCCc1[nH]nc(O)c1Cc1cccc(C)c1 [CBK075035] | 91.3 | 
CN(CCc1ccccn1)Cc1cc(Br)cs1 [CBK021314] | 92.8 | 
C=CCn1c(S)nnc1COc1cccc2ccccc12 [CBK267292] | 89.4 | 
CCc1cc2c3c(c(=O)oc2cc1OCc1cc(C(=O)O)oc1C)CCCC3 [CBK264402] | 98.8 | 
N=C1OC2CSCC2N1C(=O)Cc1ccccc1Cl (stereo not shown) [CBK284516] | 106 | 
Fc1cccc(Cl)c1CN1CNC(=S)NC1 [CBK006480] | 88.7 | 
Cc1ccnn1CCNC(=O)CCc1ccc(Cl)cc1 [CBK283182] | 91.1 | 
O=C(O)c1cccc(NS(=O)(=O)c2cccnc2)c1 [CBK155700] | 101 | 
COc1cccc2cc(C(=O)NCCCN3CCN(C)CC3)oc12 [CBK149788] | 101 | 
CCCCCCC(C)n1c(-c2nonc2N)nc2ccccc21 (stereo not shown) [CBK062648] | 94.2 | 
Cc1cc(COc2nccnc2N2CCCC2)no1 [CBK115755] | 91.3 | 
COc1ccc(Cn2nc3nnc(-c4ccc(F)cc4)c(-c4ccc(F)cc4)n3c2=O)cc1 [CBK286183] | 107 | 
Cc1cc(=O)[nH]c(SCc2nc3ccccn3c2Br)n1 [CBK296063] | 121 | 
COc1cc2c(cc1OC)C1(CCOCC1)CNC2CC(c1ccccc1)c1ccccc1 (stereo not shown) [CBK014382] | 91.4 | 
CSc1ccccc1Nc1ncnc2n[nH]cc12 [CBK288099] | 114 | 
O=S(=O)(Nc1cccnc1)N1CCOCC1 [CBK269362] | 97.9 | 
CN(C)c1ccc(-c2nccnc2NS(=O)(=O)c2ccc(C(F)(F)F)cc2)cc1 [CBK050802] | 95.1 | 
CCN(CC)CCN(Cc1ccc2c(c1)OCO2)C(=O)Nc1cccc(NC(C)=O)c1 [CBK159042] | 108 | 
CCc1nc(CN2CCOC(c3ccc(F)cc3)C2)cs1 (stereo not shown) [CBK305090] | 89.7 | 
CCCOc1ccc(C(N)CC(=O)O)cc1 (stereo not shown) [CBK261360] | 93.5 | 
Cc1ccc(-n2c(SCC(=O)Nc3ccccc3C#N)nnc2-c2cc(Br)ccc2O)c(C)c1 [CBK268743] | 94.1 | 
CNC(=O)C1(Cc2ccccc2-c2ccccc2)CCN(C(=O)Cc2cccc(C)c2)CC1 [CBK285594] | 104 | 
Cc1cc2ccccc2n2c(=O)n(CC(=O)N(C(C)C)C(C)C)nc12 [CBK283885] | 87.1 | 

SMILES | viability at 28.5 h, 10 µM [%] | viability at 28.5 h, 10 µM (bulk resorufin, single well) [%]
Cc1c(CN2CCC(CO)C2)cnn1Cc1ccccc1 (stereo not shown) [CBK282113] | 99.5 | 
c1coc(-c2cn3ccnc3c(Nc3ccc4[nH]ccc4c3)n2)c1 [CBK037361] | 91.9 | 
O=C(Nc1nn(Cc2c(F)cccc2Cl)cc1Cl)c1cccnc1 [CBK268154] | 79.1 | 
CCn1c(SCC(=O)Nc2ccc([N+](=O)[O-])cc2)nnc1C(NC(=O)c1ccccc1)C(C)C (stereo not shown) [CBK107508] | 94.9 | 
O=c1[nH]c2ncc(-c3cccc4cccnc34)nc2n1Cc1cccnc1 [CBK064305] | 58.9 | 
O=C(CSc1nnc(COc2ccc(Br)cc2)o1)OC1CCCCC1 [CBK027482] | 88.8 | 
Cc1cc(=[N+]2CCCCC2)cc(C)o1 [CBK022824I] | 96.7 | 
CC(=O)c1cccc(-n2c(CCC(=O)O)ccc2-c2ccc(Br)cc2)c1 [CBK131888] | 98.2 | 
c1cc2c(cc1-c1nn3cnnc3s1)OCCO2 [CBK287866] | 88.1 | 
CC1CN(C(=O)OC(C)(C)C)CCN1c1nc2ccccc2nc1O (stereo not shown) [CBK003877C] | 116 | 
CC(C)CCN[C@H]1CO[C@H]2[C@@H]1OC[C@@H]2n1nnnc1-c1ccccc1 [CBK289537] | 88.1 | 
CCOC(=O)c1ccc(NC(=O)c2c(O)[nH]c(=O)[nH]c2=O)cc1 [CBK115565] |  | 84.7
Cc1c(CN2CCC3(CC2)CC(c2ccccc2)CN(C)C3)cnn1C (stereo not shown) [CBK306666] | 105 | 
COc1ccccc1CNC(=O)c1ccc(=O)[nH]c1 [CBK288133] | 106 | 
O=C(CSc1ccccn1)Nc1ccc(C(=O)O)cc1 [CBK286605] | 87.2 | 
O=C1C=C(c2ccc([N+](=O)[O-])cc2)Nc2nonc2N1 [CBK261487] | 89.4 | 
O=C(CCCN1C(=O)c2cccc3cccc(c23)C1=O)N1CCN(Cc2ccc3c(c2)OCO3)CC1 [CBK074370] | 72.6 | 
Nn1c(SCC(=O)Nc2ccc3c(c2)OCCO3)nnc1-c1ccccn1 [CBK267551] | 87.4 | 
Cc1ccc(S(=O)(=O)NCCSc2nnc(Nc3ccccc3)s2)cc1 [CBK266345] | 106 | 
O=C(COc1ccc(N2CC(C(=O)O)CC2=O)cc1)Nc1cccc(C(F)(F)F)c1 (stereo not shown) [CBK268096] | 100 | 
FC(F)(F)c1[nH]c2ncccc2c1CN1CCSCC1 [CBK283257] | 87.7 | 
CCC(CO)Nc1cncc(-c2ccc(C(N)=O)cc2)n1 (stereo not shown) [CBK065577] | 100 | 
COc1ccc(C)cc1C1(CNC(=O)C2CCC(=O)N2)CCOCC1 (stereo not shown) [CBK304967] | 94.8 | 

SMILES | viability at 28.5 h, 10 µM [%] | viability at 28.5 h, 10 µM (bulk resorufin, single well) [%]
CN(CCOc1ccc(CC2SC(=O)NC2=O)cc1)c1ccccn1 (stereo not shown) [CBK013537] | 101 | 
CN(C)c1ccc(-c2cncc(NCc3ccc4c(c3)OCO4)n2)cc1 [CBK037190] | 108 | 
O=[N+]([O-])c1cc2c(cc1C(Nc1ccccn1)c1cc(Cl)c3cccnc3c1O)OCO2 (stereo not shown) [CBK267795] | 83 | 
O=C(CN1CCCCC1)NN(Cc1ccccc1)c1ccccc1 [CBK261521G] | 103 | 
Cn1nccc1CN1CCOC(c2nc(C(C)(C)C)cs2)C1 (stereo not shown) [CBK304690] | 93.7 | 
CCSc1nc(-c2ccncc2)ccc1C#N [CBK288539] | 75.2 | 
CCN(CC)C(=O)C1CCCN(C(=O)NC(c2ccccc2)c2ccccc2)C1 (stereo not shown) [CBK156125] | 106 | 
O=C(O)CCC(=O)N1CCN(C(=O)c2ccco2)CC1 [CBK286533] | 102 | 
Cc1ccccc1C1(O)CCN(CC(O)c2ccc3c(c2)OCCCO3)CC1 (stereo not shown) [CBK286332] | 103 | 
Cc1cc(C)n(CCCC(=O)N2CCOCC(O)(CN3CCCC3)C2)n1 (stereo not shown) [CBK306550] | 101 | 
CC(C)(O)C#Cc1ccc(C(=O)NCCC(=O)O)s1 [CBK267704] | 97.1 | 
c1ccc(CCNc2nc(-c3cccnc3)nc3ccccc23)cc1 [CBK263672] | 105 | 
CS(=O)(=O)N1CCc2cc(S(=O)(=O)N3CCN(c4ccc([N+](=O)[O-])c(NCc5ccccc5)c4)CC3)ccc21 [CBK268311] | 102 | 
O=C(CSc1nc2ccccc2nc1N1CCCC1)N1CCN(c2ccccc2)CC1 [CBK293977] | 86.5 | 
CCOC(=O)c1cccc(NS(=O)(=O)c2cc(Br)ccc2OC)c1 [CBK034336] | 63.3 | 
CCCN1CCC(N(C)CCN(CC)CC)CC1 [CBK261935] | 104 | 
COC(=O)c1ccc(N2CCOCC2)c(NC(=O)c2cccnc2)c1 [CBK270257] | 95.9 | 
CCN1CC2(CCN(CCCCC3NC(=O)NC3=O)CC2)c2ccccc21 (stereo not shown) [CBK131489] | 96 | 
Cc1nc(C)c(C(=O)Nc2ccccc2-c2ccc3c(c2)COC2(CCNCC2)O3)s1 [CBK107628] |  | 96.8
COc1ccc(S(=O)(=O)Nc2cccc(C(=O)Nc3ccc(F)cc3)c2)cc1OC [CBK038982] | 71.7 | 
Cc1cn(S(=O)(=O)c2ccc(Br)cc2)cn1 [CBK026488] | 97.3 | 
Cc1cccnc1NS(=O)(=O)c1cccs1 [CBK299775] | 80.6 | 
CCNS(=O)(=O)c1ccc(NC(=S)Nc2ccc(S(N)(=O)=O)cc2)cc1 [CBK266978] | 99.5 | 

SMILES | viability at 28.5 h, 10 µM [%] | viability at 28.5 h, 10 µM (bulk resorufin, single well) [%]
Clc1ccc(Cl)c(N/N=C(\c2ccccc2)c2cccnc2)c1 [CBK015932C] | 96.9 | 
Cc1ccc(-c2csc(NC(=O)c3c(C)noc3C)c2C(=O)NC2CC2)cc1 [CBK268141] | 95.1 | 
CN1CCN(CC(CC(=O)Nc2c(F)cccc2F)C(=O)O)CC1 (stereo not shown) [CBK286867] | 92 | 
CN1CCC(=NNC(=O)c2ccc(CN3CCOCC3)cc2)CC1 [CBK262749] | 86.6 | 
CC(C)Cn1c(=O)c(C(=O)Nc2cccc(Cl)c2)c(O)c2ccccc21 [CBK159967] | 103 | 
CN1CCc2c(sc3nc(SCC(=O)c4ccccc4)n(-c4ccccc4)c(=O)c23)C1 [CBK262586] | 85.8 | 
CSc1sc(C(=O)CC#N)c2c1C=CCC2 [CBK006004] | 91 | 
O=c1n(C(c2ccccc2)c2ccccc2)ccn1S(=O)(=O)c1ccc2ccccc2c1 [CBK106623] | 94.6 | 
CC(=O)Nc1cccc(-n2nnnc2SCC2CCCCO2)c1 (stereo not shown) [CBK305746] | 91.5 | 
CCCS(=O)(=O)Nc1cccc(-c2nnn[nH]2)c1 [CBK155417] | 104 | 
CC(Cn1cncn1)NS(=O)(=O)c1cccc(C(=O)N2CCCCC2)c1 (stereo not shown) [CBK306594] | 86.7 | 
Cc1nc2ccc(C(=O)N(C)CCN(C)C)cn2c1N(C)CC1CCCCC1 [CBK145894] | 96.7 | 
O=C1NCCNC(=O)C2(C/C=C/COc3ccccc31)CCCNC2 (stereo not shown) [CBK292171] | 115 | 
COc1ccc2c3c([nH]c2c1)C(C)N(CCC(=O)NN)CC3 (stereo not shown) [CBK261726] | 93.2 | 
Cc1c(C)n(Cc2ccco2)c2ncnc(N3CCC(C(=O)O)CC3)c12 [CBK307599] | 99.1 | 
CC(C)(C)NC(=O)c1cccc(N2C(=O)c3ccc(C(=O)O)cc3C2=O)c1 [CBK287123] | 86.8 | 
Cc1nnc(SCCOc2ccc(Cl)c(C)c2)s1 [CBK026160] | 89.9 | 
Cc1nc(C2CN(Cc3ccc(Cl)c4cccnc34)CCO2)no1 (stereo not shown) [CBK305384] | 102 | 
O=P(O)(CNCc1ccccc1)CNCc1ccccc1 [CBK261604C] | 118 | 
CCOc1ncccc1CNc1ncnc2c1cnn2CCO [CBK305964] | 97 | 
Cc1c(OCCC2CCCCN2C)ccc2c(=O)cc(N3CCOCC3)oc12 (stereo not shown) [CBK016644] | 91.8 | 
O=C(NCCn1nc(-c2cccs2)ccc1=O)C1CCCCC1 [CBK283837] | 90.7 | 
